Laboratory results as given in US9718825B2, “N-(4-(azaindazol-6-yl)-phenyl)-sulfonamides and their use as pharmaceuticals” (priority 2013, dated 2017).
pIC50: −log10 of the molar value.

What was measured:
[1] = biological target: recombinant human SGK-1 enzyme; experiment: Enzymatic activity assay: SGK-1 substrate peptide phosphorylation (Caliper lab-chip mobility shift); type: biochemical; conditions: peptide substrate 1 μM, ATP 10 μM, 60 min at 37° C., read-out: IC50 values for inhibition of SGK-1 enzymatic activity
[2] = test system: SGK-1 dependent phosphorylation of GSK3beta in U2OS cells; experiment: SGK-1 dependent phosphorylation of GSK3beta in U2OS cells overexpressing recombinant SGK-1 and GSK3beta; type: cell-based, human; conditions: Homo sapiens, U2OS, 6 h, read-out: IC50 values for inhibition of SGK-1 dependent phosphorylation of GSK3beta in U2OS cells

## Cc1ccc(C#N)c(S(=O)(=O)Nc2ccc(-c3cc4[nH]nc(C)c4cn3)cc2)c1 [Example 561, 2-Cyano-5-methyl-N-[4-(3-methyl-1H-pyrazolo[4,3-c]pyridin-6-yl)phenyl]benzenesulfonamide]
[1]
  pIC50: 8.11
[2]
  pIC50: 5.57
